{"source": "patent US20180200257A1", "about": "“METHODS FOR THE TREATMENT OF INFLAMMATORY DISORDERS” (Galapagos NV, priority 2015, published 2018)", "assay_type_in_all_cases": "in vivo, human", "key": {"[1]": {"test_system": "Subjects With Active Crohn's Disease With Evidence of Mucosal Ulceration", "assay": "Study 3 - Inflammatory Bowel Disease Questionnaire (IBDQ) scores", "settings": "200 mg, LOCF", "source_text": "Double-Blind, Randomized, Placebo-Controlled, Multi-Centre Study to Investigate the Efficacy and Safety of Compound 1 in Subjects With Active Crohn's Disease With Evidence of Mucosal Ulceration. This is a double-blind, randomized, placebo-controlled, multi-centre Phase 2 study to investigate the efficacy and safety of Compound 1 administered once daily for the treatment of active CD with evidence of mucosal ulceration. The pharmacokinetics (including a PK substudy) and pharmacodynamics of Compound 1 and metabolite in CD will also be characterised. A total of 180 eligible subjects will be randomized to receive Compound 1 or placebo in addition to their stable background treatment (eg, corticosteroids, aminosalicylates, or CD-related antibiotics). The study will consist of 2 parts, with total treatment duration of 20 weeks. Randomization in Part 1 will be stratified according the subject's previous anti-TNF exposure/response, CRP level at Screening, and oral corticosteroid use at visit Day -1. After the first 10 weeks of treatment in Part 1, patients will be re-randomized for Part 2 as shown in the diagram below and will be stratified according to the subject's clinical response, previous anti-TNF exposure/response, and oral corticosteroid use at visit Day -1. [table] The Inflammatory Bowel Disease Questionnaire (IBDQ) is a questionnaire for health-related quality of life assessment in patients with inflammatory bowel diseases: ulcerative colitis and Crohn's disease. It consists of 32 questions divided into four groups: bowel symptoms (10 items), systemic symptoms (5 items), emotional function (12 items) and social function (5 items). Every question has graded responses from 1 to 7, and thus the total score is ranging from 32 to 224 with higher scores representing better quality of life. The IBDQ is a validated assessment tool that reflects important changes in the quality of life of patients with IBD (adapted from […] et al, Inflamm Bowel Dis, Volume 10, Number 3, May 2004)"}, "[2]": {"test_system": "subjects with moderately to severely active RA who have an inadequate response to methotrexate (MTX)", "assay": "Study 2 (monotherapy) - serum CRP values", "source_text": "Randomized, double-blind, placebo-controlled, multicenter, phase IIb dose finding study of Compound 1 (dosed as a [Compound 1:HCl:3H2O]) administered for 24 weeks as monotherapy to subjects with moderately to severely active rheumatoid arthritis who have an inadequate response to methotrexate alone\nDouble-blind, placebo-controlled, monotherapy study in subjects with moderately to severely active RA who have an inadequate response to methotrexate (MTX) (oral or parenteral).\n280 subjects randomized to one of 3 doses of Compound 1 (dosed as a [Compound 1:HCl:3H2O]) or to placebo, given once daily (q.d.).\nTwelve weeks of treatment with Compound 1 (dosed as a [Compound 1:HCl:3H2O]) at 50 mg, 100 mg, or 200 mg q.d.; or placebo. At Week 12, all subjects on placebo and the subjects on the 50 mg dose who have not achieved 20% improvement in swollen joint count (SJC66) and tender joint count (TJC68) will be assigned to 100 mg q.d. in a blinded fashion and will continue treatment until Week 24. Subjects in the other groups will maintain their randomized treatment until Week 24.\nCRP determination is available at Quest Diagnostics, Clinical Trials, Quest House, 125-135 Staines Road, Hounslow, Middlesex, TW3 3JB, United Kingdom under Catalogue n#86140.\nThe determination of CRP is made using Immunoturbidimetric assay for the in vitro quantitative determination of CRP in human serum and plasma on Roche/Hitachi cobas c systems, wherein human CRP agglutinates with latex particles coated with monoclonal anti-CRP antibodies. The aggregates are determined turbidimetrically (Eda et al., 1998; Price et al., 1987).\nHuman serum and plasma samples CRP determination was done on a Roche/Hitachi Cobas c 301 c 501/502 system which automatically calculate the analyte concentration of each sample. Samples containing precipitates are centrifuged before performing the assay.\nThe machine parameters are listed in Table XCI and Table XCII below, and the results at 12 weeks v using either LOCF are shown in Table XCIII and below. The Hommel-corrected p-value for the pairwise comparisons of each group with placebo is shown.\nThe number of subjects (N) provided in each groups corresponds to the number of subjects starting the study in each group, and the CRP data reported below corresponds to the responding subjects continuing for the entire 24 weeks on their initial treatment course."}, "[3]": {"test_system": "Subjects With Active Crohn's Disease With Evidence of Mucosal Ulceration", "assay": "Study 3 - CDAI component PRO2 score", "settings": "200 mg", "source_text": "Double-Blind, Randomized, Placebo-Controlled, Multi-Centre Study to Investigate the Efficacy and Safety of Compound 1 in Subjects With Active Crohn's Disease With Evidence of Mucosal Ulceration. This is a double-blind, randomized, placebo-controlled, multi-centre Phase 2 study to investigate the efficacy and safety of Compound 1 administered once daily for the treatment of active CD with evidence of mucosal ulceration. The pharmacokinetics (including a PK substudy) and pharmacodynamics of Compound 1 and metabolite in CD will also be characterised. A total of 180 eligible subjects will be randomized to receive Compound 1 or placebo in addition to their stable background treatment (eg, corticosteroids, aminosalicylates, or CD-related antibiotics). The study will consist of 2 parts, with total treatment duration of 20 weeks. Randomization in Part 1 will be stratified according the subject's previous anti-TNF exposure/response, CRP level at Screening, and oral corticosteroid use at visit Day −1. After the first 10 weeks of treatment in Part 1, patients will be re-randomized for Part 2 as shown in the diagram below and will be stratified according to the subject's clinical response, previous anti-TNF exposure/response, and oral corticosteroid use at visit Day -1. [table] Within the CDAI score measurement parameters, the PRO2 score, based on the stool frequency (SF) and abdominal pain (AP) components of the CDAI, was also measured. The PRO2 score is calculated as follows: PRO2=7 x (mean daily number of liquid or very soft stools)+7×(mean daily abdominal pain score). This score provides a measurement of the symptoms improvement of the patient."}}, "data": [{"smiles": "O=C(Nc1nc2cccc(-c3ccc(CN4CCS(=O)(=O)CC4)cc3)n2n1)C1CC1", "note": "[Compound 1, cyclopropanecarboxylic acid {5-[4-(1,1-dioxo-thiomorpholin-4-ylmethyl)-phenyl]-[1,2,4]triazolo[1,5-a]pyridin-2-yl}-amide]", "values": [{"measurement": "IBDQ Bowel symptoms", "setting": "[1]; Baseline", "result": 41.07}, {"measurement": "IBDQ Emotional status", "setting": "[1]; Baseline", "result": 45.91}, {"measurement": "IBDQ Social functioning", "setting": "[1]; Baseline", "result": 19.26}, {"measurement": "IBDQ Systemic symptoms", "setting": "[1]; Baseline", "result": 16.32}, {"measurement": "IBDQ mean CFB", "setting": "[1]; Baseline", "result": 123.00}, {"measurement": "IBDQ Bowel symptoms", "setting": "[1]; week 10", "result": 9.96}, {"measurement": "IBDQ Emotional status", "setting": "[1]; week 10", "result": 12.07}, {"measurement": "IBDQ Social functioning", "setting": "[1]; week 10", "result": 6.19}, {"measurement": "IBDQ Systemic symptoms", "setting": "[1]; week 10", "result": 5.73}, {"measurement": "IBDQ mean CFB", "setting": "[1]; week 10", "result": 33.82}, {"measurement": "CRP mean CFB mg/L (LOCF)", "setting": "[2]; 50 mg q.d., week 1, 12 weeks results", "result": -3.70, "unit": "mg/L"}, {"measurement": "CRP mean CFB mg/L (LOCF)", "setting": "[2]; 50 mg q.d., week 2, 12 weeks results", "result": -4.16, "unit": "mg/L"}, {"measurement": "CRP mean CFB mg/L (LOCF)", "setting": "[2]; 50 mg q.d., week 4, 12 weeks results", "result": -9.46, "unit": "mg/L"}, {"measurement": "CRP mean CFB mg/L (LOCF)", "setting": "[2]; 50 mg q.d., week 12, 12 weeks results", "result": -4.43, "unit": "mg/L"}, {"measurement": "CRP mean CFB mg/L (LOCF)", "setting": "[2]; 50 mg q.d., week 8, 12 weeks results", "result": -11.16, "unit": "mg/L"}, {"measurement": "CRP mean CFB mg/L (LOCF)", "setting": "[2]; 100 mg q.d., week 1, 12 weeks results", "result": -10.33, "unit": "mg/L"}, {"measurement": "CRP mean CFB mg/L (LOCF)", "setting": "[2]; 100 mg q.d., week 2, 12 weeks results", "result": -8.67, "unit": "mg/L"}, {"measurement": "CRP mean CFB mg/L (LOCF)", "setting": "[2]; 100 mg q.d., week 4, 12 weeks results", "result": -12.08, "unit": "mg/L"}, {"measurement": "CRP mean CFB mg/L (LOCF)", "setting": "[2]; 100 mg q.d., week 12, 12 weeks results", "result": -12.25, "unit": "mg/L"}, {"measurement": "CRP mean CFB mg/L (LOCF)", "setting": "[2]; 100 mg q.d., week 8, 12 weeks results", "result": -14.17, "unit": "mg/L"}, {"measurement": "CRP mean CFB mg/L (LOCF)", "setting": "[2]; 200 mg q.d., week 1, 12 weeks results", "result": -12.58, "unit": "mg/L"}, {"measurement": "CRP mean CFB mg/L (LOCF)", "setting": "[2]; 200 mg q.d., week 2, 12 weeks results", "result": -13.28, "unit": "mg/L"}, {"measurement": "CRP mean CFB mg/L (LOCF)", "setting": "[2]; 200 mg q.d., week 4, 12 weeks results", "result": -13.04, "unit": "mg/L"}, {"measurement": "CRP mean CFB mg/L (LOCF)", "setting": "[2]; 200 mg q.d., week 12, 12 weeks results", "result": -14.85, "unit": "mg/L"}, {"measurement": "CRP mean CFB mg/L (LOCF)", "setting": "[2]; 200 mg q.d., week 8, 12 weeks results", "result": -13.86, "unit": "mg/L"}, {"measurement": "PRO2 mean, baseline", "setting": "[3]; Baseline, LOCF", "result": 52.4}, {"measurement": "PRO2 mean CFB, W 10", "setting": "[3]; week 10, LOCF", "result": "−21.9"}, {"measurement": "PRO2 remission (PRO2 ≤ 28)", "setting": "[3]; week 10, LOCF", "result": 55, "unit": "%"}, {"measurement": "PRO2 response (mean daily number of liquid or very soft stools ≤ 3, mean daily abdominal pain ≤ 1)", "setting": "[3]; week 10, LOCF", "result": 38, "unit": "%"}, {"measurement": "PRO2 remission (PRO2 ≤ 28)", "setting": "[3]; week 10, NRI", "result": 50, "unit": "%"}, {"measurement": "PRO2 response (mean daily number of liquid or very soft stools ≤ 3, mean daily abdominal pain ≤ 1)", "setting": "[3]; week 10, NRI", "result": 34, "unit": "%"}]}]}
